Reference: PubChem BioAssay (NCI)
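Dose response: 5 concentrations. Exposure: 48 h. Format: 96-well plates. Endpoint: linear interpolation; highest concentration if not reached. Here, GI50 denotes the concentration required for 50% inhibition of growth. TGI is the concentration that stops growth completely.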 *1 amine or outer side, *2 acyl side, *3 side chain or, on linkers, in order; H or OH if unused. Where a SMILES comes first, the peptide text is derived from it. Bridges are numbered along the chain shown (N, C = ends). [ ]: non-standard residue; d: D form. ξ: configuration not given here. X35 = CC[C@H](C)[C@@H](N[*:1])[C@@H](O)CC(=O)O[C@H](C(=O)[C@H](C)C(=O)[*:2])C(C)C; NMeY = CN[C@@H](Cc1ccc(O)cc1)C(=O)O; dNMeL = CN[C@H](CC(C)C)C(=O)O; ξΔPro = O=C(O)C1C=CCN1

What was measured:
Test in all cases: NCI anticancer screen, dose series, 48 h
SK-MEL-2 melanoma = test system: SK-MEL-2 melanoma
SNB-19 CNS = test system: SNB-19 CNS
MDA-MB-231 breast = test system: MDA-MB-231 breast
IGROV1 ovarian = test system: IGROV1 ovarian
OVCAR-5 ovarian = test system: OVCAR-5 ovarian
SW-620 colon = test system: SW-620 colon
LOX IMVI melanoma = test system: LOX IMVI melanoma
HCT-15 colon = test system: HCT-15 colon
SK-MEL-28 melanoma = test system: SK-MEL-28 melanoma
K-562 leukemia = test system: K-562 leukemia

SMILES	TGI (SK-MEL-2 melanoma) [µM]	TGI (SNB-19 CNS) [µM]	TGI (MDA-MB-231 breast) [µM]	TGI (IGROV1 ovarian) [µM]	TGI (OVCAR-5 ovarian) [µM]	TGI (SW-620 colon) [µM]	TGI (LOX IMVI melanoma) [µM]	TGI (HCT-15 colon) [µM]	TGI (SK-MEL-28 melanoma) [µM]	TGI (K-562 leukemia) [µM]	GI50 (SK-MEL-2 melanoma) [µM]	GI50 (SNB-19 CNS) [µM]	GI50 (MDA-MB-231 breast) [µM]	GI50 (IGROV1 ovarian) [µM]	GI50 (OVCAR-5 ovarian) [µM]	GI50 (SW-620 colon) [µM]	GI50 (LOX IMVI melanoma) [µM]	GI50 (HCT-15 colon) [µM]	GI50 (SK-MEL-28 melanoma) [µM]	GI50 (K-562 leukemia) [µM]
O=C(O)COc1cc(-c2ccccc2)nc2ccccc12	> 100	> 100	> 100	> 100	> 100	> 100	> 100	> 100	> 100	> 100										
Nc1ccc2c(c1)NC(=O)[C@@H]1CCCN1C2=O	> 100	> 100	> 100	> 100	> 100	> 100	> 100	> 100	> 100	> 100										
O=C1c2ccccc2C(=O)c2nn(N=P(CP(=Nn3nc4c(n3)C(=O)c3ccccc3C4=O)(c3ccccc3)c3ccccc3)(c3ccccc3)c3ccccc3)nc21	> 100	> 100	> 100	> 100	> 100	> 100	> 100	> 100	> 100	> 100										
COc1cc2c(cc1O)CCN(C)[C@H]2Cc1ccc(Oc2c(O)c(OC)cc3c2C[C@H]2c4c(c(OC)c(OC)c(OC)c4-3)CCN2C)cc1	12.6	12.5	9.47	10.7	13.2	10	6.55	10.1	11.7	3.33										
NNC(=O)Cn1ccnn1	> 100	> 100	> 100	> 100	> 100	> 100	> 100	> 100	> 100	> 100										
Cc1cn(CCOCCOC(=O)NC(CCCNC(N)=O)C(=O)O)c(=O)[nH]c1=O (stereo not given)	> 100	> 100	> 100	> 100	> 100	> 100	> 100	> 100	> 100	> 100										
N#Cc1c(N2CCN(c3ccc([N+](=O)[O-])cc3)CC2)[n+](=O)c2ccc(-c3ccc([N+](=O)[O-])cc3)cc2n1[O-]	> 100	> 100	> 48.6	> 77.8	> 100	> 100	> 100	> 100	> 100	> 100										
CC1=NN2C(=N)/C(=C/c3ccccc3)C(=O)N=C2S1	> 100	> 100	> 100	> 100	> 100	> 100	> 100	> 100	> 100	> 100										
COc1ccc2c(c1)C(=O)C1CCC(=O)N1C2c1ccc2c(c1)OCO2 (stereo not given)	41.6	26.7	54.6	32.5	28.1	23.7	35.1	29.6	24.4	39.8										
COc1ccc(NC(=O)CC(=O)N2N=C(N(c3ccccc3)c3ccccc3)CC2c2ccccc2)cc1 (stereo not given)	> 100	> 100	> 100	> 100	> 100	> 100	> 100	> 100	> 100	> 100										
CC(=O)Nc1ccc(/C=C2/NC(=S)N(/C=C3\C(=O)Oc4ccccc4C3=O)C2=O)cc1	> 100	> 100	> 100	> 100	> 100	> 100	> 100	> 100	> 100	> 100										
Clc1nc2c(C#Cc3ccccc3)ncnc2n1C1CCCCO1 (stereo not given)	31.5	37.3	48.4	29.2	25.9	55.3	30.7	31	91.3	> 100										
CC1=CC[C@](C)(O)[C@@]2(C)CC[C@H]3C(=C(C)C)C(=O)C[C@]3(C)C[C@H]12	> 50	> 50	> 50	> 50	> 50	> 50	17	46.2	> 50	17										
CC(C)(Cc1ccccc1)N1C(=O)N1C(C)(C)Cc1ccccc1	48.4	> 100	> 100	> 100	83.1	> 100	33.6	68.2	> 100	> 100										
CC[C@H](C)[C@H]1NC(=O)[C@@H](NC(=O)[C@@H](CC(C)C)N(C)C(=O)C2C=CCN2)[C@@H](C)OC(=O)[C@H](Cc2ccc(OC)cc2)N(C)C(=O)[C@@H]2CCCN2C(=O)[C@H](CC(C)C)NC(=O)[C@@H](C)C(=O)[C@H](C(C)C)OC(=O)C[C@@H]1O (stereo not given in full) (H-[ξΔPro][dNMeL]T[X35]LP[NMeY](Me); ester 3-C)	0.0115	0.00706	< 0.0464	0.115	> 50	> 50	0.0161	1.78	< 0.005	> 50										
CC(=O)O[C@H]1CCC2[C@@H]3CCC4NC(=O)C(C#N)C[C@]4(C)C3CC[C@@]21C (stereo not given in full)	> 10	> 10	> 10	> 10	> 10	> 10	> 10	> 10	> 10	> 10										
COc1ccc(C2SCC(=O)N2NC(=O)C(C)Oc2ccc(Cl)cc2Cl)cc1 (stereo not given)	> 100	> 100	81	> 100	> 100	> 100	> 100	> 100	96.3	89.8										

SMILES	TGI (SK-MEL-2 melanoma) [µM]	TGI (SNB-19 CNS) [µM]	TGI (MDA-MB-231 breast) [µM]	TGI (IGROV1 ovarian) [µM]	TGI (OVCAR-5 ovarian) [µM]	TGI (SW-620 colon) [µM]	TGI (LOX IMVI melanoma) [µM]	TGI (HCT-15 colon) [µM]	TGI (SK-MEL-28 melanoma) [µM]	TGI (K-562 leukemia) [µM]	GI50 (SK-MEL-2 melanoma) [µM]	GI50 (SNB-19 CNS) [µM]	GI50 (MDA-MB-231 breast) [µM]	GI50 (IGROV1 ovarian) [µM]	GI50 (OVCAR-5 ovarian) [µM]	GI50 (SW-620 colon) [µM]	GI50 (LOX IMVI melanoma) [µM]	GI50 (HCT-15 colon) [µM]	GI50 (SK-MEL-28 melanoma) [µM]	GI50 (K-562 leukemia) [µM]
COC(=O)c1cc(C)ccc1C1CN=NC12Cc1c(C)cc(C)cc1C2=O (stereo not given)	33.1	> 100	65.7	> 100	> 100	> 100	30.3	69.1	> 100	> 100										
CC(C)(C)C(=O)N1CCN(C=O)C1=S	> 100	> 100	> 100	> 100	> 100	> 100	> 100	> 100	> 100	> 100										
CCN1CCCn2c(=O)[nH]c3cc(Br)cc1c32	> 100	> 100	> 100	> 100	> 100	> 100	> 100	> 100	> 100	> 100										
COc1cc2oc(-c3ccc4c(c3)OCO4)c(OC)c(=O)c2c(O)c1OC	> 50	> 50	> 50	> 50	> 50	> 50	> 50	> 50	> 50	> 50										
CC1CN=C(c2ccc(CN3CCC(C4CCN(Cc5ccc(C6=NCC(C)N6)cc5)CC4)CC3)cc2)N1 (stereo not given)	36	75.8	36.3	> 100	65.1	43.1	56	94.7	> 100	44.8										
CNC(=O)N(CCC#N)CCCN(C(=O)N(C)C)c1ccccc1	> 100	> 100	> 100	> 100	> 100	> 100	> 100	> 100	> 100	> 100										
Cc1cc2nc(-c3c(N)ncc(C#N)c3-c3ccc(Cl)cc3)[nH]c2cc1C	> 100	75.6	44.2	> 100	> 100	> 100	26	> 100	40.2	> 100	20.4	19.5	10.5	18.7	14.7	32.4	5.83	30.6	5.8	31.5
Cn1c2ccc(C3=NCCN3)cc2c2cc(C3=NCCN3)ccc21	> 100	> 100	> 100	> 100	> 100	> 100	> 100	> 100	> 100	> 100										
O=[N+]([O-])c1ccc2c(c1)n1c(N3CCCC3)[n+]3ccccc3c1c1c3cccc[n+]3c(N3CCCC3)n21	> 100	> 100	> 100	> 100	> 100	> 100	> 100	> 100	> 100	88.2										
O=C(O)CCSC1=NCCN1	> 100	> 100	> 100	> 100	> 100	> 100	> 100	> 100	> 100	> 100										
O=[N+]([O-])c1cc(F)ccc1Sc1ccccc1	> 10	> 10	> 10	> 10	> 10	> 10	> 10	> 10	> 10	> 10										
COc1cccc(NC(=O)CC(=O)N2N=C(C)C(N=Nc3ccc(C(=O)O)cc3)C2=O)c1 (stereo not given)	> 100	> 100	> 100	> 100	> 100	> 100	> 100	> 100	> 100	> 100										
CC(C)(CN1CCCCC1)C(/C=C/c1ccccc1)=N\NC(=O)N/N=C(/C=C/c1ccccc1)C(C)(C)CN1CCCCC1	3.73	3.95	2.81	6.07	15.4	3.13	3.32	2.72	3.07	2.81										
O=C(NCCCCCCO)c1cccc2cc3ccccc3nc12	30.1	32.1	40	35.7	38.9	> 100	34.7	48.6	42.5	> 100										
C[C@]12CC[C@H]3[C@@H](CCC4=C(Br)C(=O)C=C[C@@]43O)[C@@H]1CCC2=O	> 100	> 100	> 100	> 100	> 100	> 100	> 100	52.7	> 100	> 100										
COc1cc2oc(=O)cc(C)c2c(OC)c1OC(C)=O	> 100	> 100	> 100	> 100	> 100	> 100	> 100	> 100	> 100	> 100										
O=C1C(Cl)=C(c2ccc([N+](=O)[O-])cc2)C(=O)c2c(O)cccc21	2.22	5.68	3.13	4.34	5.98	3.66	3.6	3.35	4.16	> 100										
